Results from the Kinase Knowledgebase extract (Sharma et al. 2016).

Biological target: EGFR (UniProt P00533)
Sequence (P00533 whole entry, looked up): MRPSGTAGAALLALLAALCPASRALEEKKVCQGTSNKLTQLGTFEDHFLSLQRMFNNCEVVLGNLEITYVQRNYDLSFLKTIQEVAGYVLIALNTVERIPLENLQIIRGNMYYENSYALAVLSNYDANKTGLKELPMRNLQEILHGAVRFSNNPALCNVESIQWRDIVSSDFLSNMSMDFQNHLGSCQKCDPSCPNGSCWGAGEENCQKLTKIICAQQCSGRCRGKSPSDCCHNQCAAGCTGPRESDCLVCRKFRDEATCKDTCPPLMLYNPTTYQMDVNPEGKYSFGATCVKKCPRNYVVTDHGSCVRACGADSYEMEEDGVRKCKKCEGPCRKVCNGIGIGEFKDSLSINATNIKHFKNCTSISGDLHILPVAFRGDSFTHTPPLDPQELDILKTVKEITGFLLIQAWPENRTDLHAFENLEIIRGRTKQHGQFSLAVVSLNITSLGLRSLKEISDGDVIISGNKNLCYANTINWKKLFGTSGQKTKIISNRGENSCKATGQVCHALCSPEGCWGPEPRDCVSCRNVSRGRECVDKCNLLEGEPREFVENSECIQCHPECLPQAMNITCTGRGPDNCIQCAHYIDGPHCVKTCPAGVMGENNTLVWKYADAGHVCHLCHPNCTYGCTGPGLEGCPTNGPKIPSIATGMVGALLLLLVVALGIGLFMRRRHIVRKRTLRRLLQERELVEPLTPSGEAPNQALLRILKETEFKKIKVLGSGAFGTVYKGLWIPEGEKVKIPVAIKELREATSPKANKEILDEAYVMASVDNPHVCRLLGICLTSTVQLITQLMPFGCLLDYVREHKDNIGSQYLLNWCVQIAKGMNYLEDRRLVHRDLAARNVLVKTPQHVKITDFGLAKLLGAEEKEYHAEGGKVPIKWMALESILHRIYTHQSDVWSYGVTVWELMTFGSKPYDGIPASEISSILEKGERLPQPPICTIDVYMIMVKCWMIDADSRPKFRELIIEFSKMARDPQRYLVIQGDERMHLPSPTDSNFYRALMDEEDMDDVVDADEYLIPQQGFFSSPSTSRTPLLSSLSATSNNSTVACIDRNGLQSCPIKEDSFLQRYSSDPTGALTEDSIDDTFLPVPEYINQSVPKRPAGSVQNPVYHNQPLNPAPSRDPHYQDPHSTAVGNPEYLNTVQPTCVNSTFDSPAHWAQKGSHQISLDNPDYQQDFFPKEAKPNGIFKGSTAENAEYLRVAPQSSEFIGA

Compound | IC50
Cc1c(-c2ccccc2)[nH]c2ncnc(Nc3cccc(Cl)c3)c12 | 10 nM
CCN(CC)CCOc1ccc(Nc2ncc3cc(-c4c(Cl)cccc4Cl)c(NC(=O)NC(C)(C)C)nc3n2)cc1 | 24 nM
Brc1cccc(Nc2ncnc3ccccc23)c1 | 27 nM
Clc1cccc(Nc2ncnc3[nH]nc(Nc4cccc(Cl)c4)c23)c1 | 84 nM
O=C(O)c1ccc(-c2cc3c(Nc4cccc(Cl)c4)ncnc3[nH]2)cc1 | < 5 nM
CN(C)c1ncc2cc(-c3c(Cl)cccc3Cl)c(=O)n(C)c2n1 | 50000 nM
Cc1[nH]c2ncnc(Nc3cccc(C(=O)O)c3)c2c1C | 16300 nM
Oc1ccc(-c2cc3c(Nc4cccc(Cl)c4)ncnc3[nH]2)cc1 | < 5 nM
Cn1c(=O)c(-c2c(Cl)cccc2Cl)cc2cnc(N)nc21 | 5600 nM
CCOC(=O)c1ccc(-c2cc3c(Nc4cccc(Cl)c4)ncnc3[nH]2)cc1 | < 5 nM

Continued, values first:

IC50 | Compound
< 5 nM | Nc1cccc(-c2cc3c(Nc4cccc(Cl)c4)ncnc3[nH]2)c1
27 nM | Cc1[nH]c2ncnc(Nc3cccc(Br)c3)c2c1C
1250 nM | Cc1[nH]c2ncnc(Nc3cccc(O)c3)c2c1C
> 100000 nM | Brc1cccc(Nc2nccc3ccccc23)c1
< 5 nM | Nc1ccc(-c2cc3c(Nc4cccc(Cl)c4)ncnc3[nH]2)cc1
5500 nM | Brc1cccc(Nc2ccnc3ccccc23)c1
< 5 nM | Oc1cccc(-c2cc3c(Nc4cccc(Cl)c4)ncnc3[nH]2)c1
> 10000 nM | COc1cc2nc(C)nc(Nc3cccc(Br)c3)c2cc1OC
463 nM | COc1cc2nc(N)nc(Nc3cccc(Br)c3)c2cc1OC
